Source: US9279004B2, “Synthetic PnTx(19) peptide, pharmaceutical compositions and use” (priority 2012, dated 2016)

Key:
[1] = test system: strips of cavernous body isolated from mice; assay: Relaxation of cavernous-body strips pre-contracted with phenylephrine; settings: acetylcholine 10^-4 M (control); pre-contracted by phenylephrine 10^-5 M
Text: FIG. 5—Effects of the toxin PnTx2-6 and of the peptide PnTx(19) (1×10^-6M) on the relaxation of strips of cavernous goodies of mice. The strips were pre-contracted with phenylefrine (10^-5 M) and relaxed with acetylcholine (10^-4M)-control, PnTx2-6 (5×10^-8M) and PnTx(19) (x10-6 M) (n=3).
Mice were sacrificed by decapitation, their penis were removed surgically and placed on a Petri dish containing Krebs Ringer bicarbonate—(NaCl, 118.1; KCl, 4.7; KH2PO4, 1.0; MgSo4, 1.0: NaHCO3, 25.0; CaCl2, 2.55; and Glucose, 11.1 mM), bubbled with a mixture of 95% O2 and 5% CO2. The gland, the spongy body and the urethra were removed and the cavernous bodies were desiccated with removal of the tunica albuginea and separated by cutting the fibrous septum between them. The strips of cavernous bodies measuring about 1×1×7 mm were mounted separately in a chamber, one end thereof being secured to an electrode and the other linked to a transducer. […]
The tissue was stretched by a passive force of 2.0 mN and stabilized for 60 minutes, the solution being replaced every 15 minutes. The changes in isometric force were recorded by using an isometric force transducer (World Precision Instruments, Inc., Sarasota, Fla., USA), connected to an amplifier (TBM-4 model; World Precision Instruments, Inc., USA), using software WinDaq Data Acquisition (Dada® Instruments, USA). […]

[2] = test system: cerebrocortical synaptosomes of rats; assay: Release of L-glutamate from cerebrocortical synaptosomes; format: cell-based, rat; settings: 3×10^-5 M, compared with control (untreated synaptosomes), only active concentration of 10-6 to 3×10^-5 M
Method: FIG. 4—Effect of different concentrations of the PnTx(19) in releasing L-glutamate—ELISA Plate containing 300 μl/well of the synaptosome mixture (10% final volume) and NADP+(final concentration of 1 mM) in KRH with calcium (2 mM), kept at 37° C. under constant stirring was monitored. One carried out the reading of the fluorescence on the spectrofluorimeter for 2460 seconds. The enzyme GDH (35 units for the final volume of 300 μl) was added to the wells at 60 seconds; at 660 seconds, in different wells, one added different concentrations of PnTx(19) (“10^-5M, 3×10^-5 M, 10^-6 M and 3×10^-6 M”) and the KCI (33 mM). As negative controls, one used wells containing untreated synaptosomes […]. […]
The release of L-glutamate was analyzed according to the proposal of Nicholls et al. 1987 (NICHOLLS, D. et al. J. Neurochem. 49, 5057, 1987). In order to evaluate whether the peptide was capable of inducing release of L-glutamate in cerebrocortical synoptosomes of rats, just as the native toxin, one analyzed the effect thereof at the following concentrations: 10^-5M, 3×10^-5M, 10^-6M, and 2×10^-6 M, […].

[3] = test system: channels for sodium Nav1.5, present in cardiomyocytes; assay: Patch-clamp of cardiac sodium current; format: cell-based; settings: PnTx-19 1 μM
Text: FIG. 6—Effects of the peptide PnTx-19 and of the toxin PnTx2-6 in the cardiac sodium current. A—Effect of the toxin PnTx2-6 on the peak of sodium current (black arrow) and in the inactivation current (gray arrow). C—Effect of the peptide PnTx-19 on the peak of the sodium current and in the inactivation current. D—Course of time of peak in the sodium current, during the perfusion of PnTx-19 and PnTx-26. Each black circle indicates the amplitude of the Ina, measured every 1 second in a membrane potential of −20 mV. The gray bars indicate the moment when the cell was exposed to PnTx2-6 or PnTX-19 (peptide). The bar graphs summarize the effects of PnTx2-6 500 nM (n=7) and of the peptide PnTx-19 (peptide) 1 μM (n=12) in the decay constant (E) and reduction of the sodium current (F). Bars indicate average±SEM, *p<0.05 with respect to the controls.
Patch-clamp experiments were carried out with a view to analyze the effects of the toxin PnTx2-6 and of the peptide PnTx-19 on channels for sodium Nav1.5, present in cardiomyocytes.

isolated perfused heart = assay: Isolated perfused heart: ventricular pressure, heart rate and ±dP/dt; parameters: species or system rats; settings: peptide 37.8 nmol/L-37.8 μmol/L
Method: FIG. 7—Response dose curve of the peptide PnTx-19 and of the Toxin PnTx2-6 in the right (A) and (B) ventricular pressure, derived±dP/dt (C and D) and cardiac rate (E) of rats.
The rats were kept under a controlled cycle of 12 h light/darkness at a stable temperature with free access to water and food. They were decapitated 10 to 15 minutes after intraperitoneal injection of Heparin (200 IU). The thorax was opened, the heart was carefully desiccated and perfused through an aortic tip with Krebs-Ringer solution (KRS) containing (by mmol/L) NaCl (118.4), KCl (4.7), KH2PO4 (1.2), MgSO4.7H2O (1.2), CaCl2.2H2O (1.25), glucose (11.7) and NaHCO3 (26.5). The perfusion flow was kept constant (10 mL/min) at 37° C. and under constant oxygenation (5% CO2 and 95% O2). A balloon connected to a pressure transducer was inserted into the right ventricle, and one monitored the ventricular pressure, heart rate and derivative±dP/dt (FIG. 7). The balloon volume was adjusted to a final diastolic pressure of about 10 mm Hg. After a period for reaching the balance (30 to 40 minutes), 100 μmol/L carrier were injected (control), toxin at concentrations of 37.8 nmol/L-3.78 μmol/L or a peptide at concentrations of 37.8 nmol/L-37.8 μmol/L in perfusion buffer.
The results are the average±SEM. […]

Swiss mice = assay: Immunogenicity after subcutaneous immunization (indirect ELISA antibody titer); format: in vivo; settings: 10 μg subcutaneous, during the assays
Method: FIG. 8—Analysis of the antibody titer. A) Control: adjuvant (aluminum hydroxide). B) antibody titer after administration of the peptide PnTx-19 (10 μG) in different days.
Swiss, male, 20-23 gram mice were divided into 2 groups (Control—Adjuvant: aluminum hydroxide—FIG. 8 A and PnTx-19-10 μG—FIG. 8B), each group containing 4 animals. The mice were immunized by subcutaneous route. 21, 35 and 49 days from the first inoculation, the mice received a reinforcement of the above-mentioned preparations. To verify the presence of antibodies against the PnTx-19, the serum collected from the mouse tails was evaluated 15, 30, 40 and 60 days after the first inoculation through the indirect immunoenzymatic assay (ELISA), as described for other preparations (DEL PINO, F. A. B., BRANDELLI, A., GONZALES, J. C., HENRIQUES, J. A. P., DEWES, H., Effect of antibodies against β-N-acetylglucosaminidase on reproductive efficiency of the bovine tick Boophilus microplus. Vet. Parasitol. 79, 247-255, 1998).

[4] = Water solubility of the peptide; format: physicochemical; settings: acetylated and amidated peptide
Text: With a view to increasing the solubility of the peptide, in the present technology one has synthetized the PnTx(19) with modifications in the N-terminal portion (acetylation) and C-terminal portion (amidation).

[5] = test system: cerebrocortical synaptosomes; assay: Synaptosomal viability (lactate dehydrogenase activity, % lysis vs Triton X-100); format: cell-based, rat; settings: for lysis (LDH activity relative to Triton X-100 = 100% of lysis): 60 min incubation
Method: FIG. 3—Synaptosomal viability—verified by the activity of the enzyme lactate dehydrogenase, which oxidizes the NADH to NAD+. The latter determines a reduction in the reading (339 nm), which enables one to qualify the enzymatic activity. The reaction mixture was incubated for 60 min with PnTx(19) (10^-5 M; 3×10^-5 M; 10^-6 M; 3×10^-6 M) and the activity percentage evaluated with respect to the lysis triggered by the Triton X-100, considered=100% of lysis. The activity of this enzyme is proportional to the breakage of the synaptosomes, considering that this is an enzyme of the intracellular compartment.
Adult rats (240-300 g) were decapitated the brains were rapidly removed, immersed into homogenization solution (sucrose 0.32 M, EDTA 1 Mm and Dithiotreitol (DTT) 0.25 mM, pH=7.4) and kept in ice, then they were used in preparing the synaptosomes, as previously described by Dunkley et al 1988 (DUNKLEY, P. R.; Brain Research, 441, 59-71, 1988).
As control of the viability of the synaptosomes and also for verifying a possible lytic activity of the peptide, one carried out tests for activity of the enzyme lactate dehydrogenase, according to Kubowistz, Ott, 1943 (KUBOWISTZ, F., OTT, C. Biochem Z. 319, 94-117, 1943).

Row | Compound | relaxation of cavernous-body strips [1] [%] | release of L-glutamate [2] | release of L-glutamate ([2]; listed as PnTx19) | effect on density of the sodium current [3] | effect on peak of sodium current and inactivation current [3] | effect on ventricular pressure, ±dP/dt and heart rate (isolated perfused heart) | hypersensitivity or death reactions of the animals (Swiss mice) | solubility in water [4] | lysis (LDH activity relative to Triton X-100 = 100% of lysis) ([5]; 3×10^-5 M) [%] | lysis (LDH activity relative to Triton X-100 = 100% of lysis) ([5]; 3×10^-6 M) [%] | lysis (LDH activity relative to Triton X-100 = 100% of lysis) ([5]; 10^-5 M) [%] | effect on synaptosomal viability and/or exocytotic machinery ([5]; 10^-6 M to 3×10^-5 M, compared with control (absence of the peptide)) | lysis (LDH activity relative to Triton X-100 = 100% of lysis) ([5]; 10^-6 M) [%]
1 | CC(=O)OCC[N+](C)(C)C [acetylcholine] | 81.6 | – | – | – | – | – | – | – | – | – | – | – | –
2 | Ac-GERRQYFWIAWYKLANSKK-NH2 [PnTx(19)] | – | induced an increase in the release of glutamate | capable of inducing significant release of L-glutamate | this phenomenon was not observed | These effects were not observed | did not alter any of these parameters | No hypersensitivity or death reactions | water-soluble | 2 | 9 | 3.4 | does not affect the synaptosomal viability and/or exocytotic machinery | 6
